Results on 22 compounds are retold here after patent US20230117034A1, “PYRAZOLOTRIAZINES” (Bayer Aktiengesellschaft, priority 2019, published 2023).

A value given as a limit tells only on which side of the number the result lay.

Assay [1] relates to MDA-MB-231, human breast cancer cells. As to the kind of experiment: Proliferation assay MDA-MB-231 (crystal violet, 4 days). The format is cell-based. The note with it: Homo sapiens, MDA-MB-231, 96 h, MDA-MB-231 cells, median, read-out: Prolif-MDA MB-231, IC50-[mol/l] (median). The method, boiled down:
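CAL-120 or MDA-MB-231 cells grown 24 h, then exposed 4 days to compound (0.01–10 micromol/L, 0.1% DMSO). Crystal violet staining, absorbance at 595 nm, normalised to a zero-point plate (0%) and untreated cells (100%); IC50 by 4-parameter fit.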

In the next assay the target is T1, CDK2/CycE (Homo sapiens, UniProt P24941).
T1 construct: purchased ProQinase GmbH (Freiburg, Germany); host or cells: insect cells (Sf9)
The assay can be described thus: CDK2/CycE kinase assay (TR-FRET, 2 mM ATP). Format: biochemical. The note with it: 2 mM ATP (high ATP); median; read-out: CDK2/CyclinE, 2 mM ATP (high ATP), IC50 (median). In short, it runs like this:
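GST-tagged human CDK2 and CycE from Sf9 cells, about 10 ng/ml, pre-incubated 15 min at 22 °C with compound in Tris/HCl pH 8.0 buffer. Reaction with 2 mM ATP and 0.75 µM biotinylated peptide for 25 min at 22 °C. Phospho-RB antibody TR-FRET (665/620 nm ratio) read after 1 h; data normalised to no-inhibitor and no-enzyme controls.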

The subject of assay [2] is BRCA1 mRNA expression in MDA-MB-231 cells. As to the kind of experiment: qRT-PCR assay: BRCA1 mRNA expression in MDA-MB-231. Conditions: Homo sapiens, MDA-MB-231, Inhibition of BRCA1 mRNA expression in MDA-MB-231 cells; median; read-out: RTqPCR-MDA-MB-231, IC50, BRCA1 (median). Format: cell-based, human. In short, it runs like this: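 MDA-MB-231 cells, 200,000/well, treated 24 h after plating with continuous 24 h compound exposure. RNA extracted, 600 ng reverse-transcribed, BRCA1 measured by RT-qPCR normalized to GAPDH.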
(Quantitative PCR measures a nucleic acid by following its amplification.)

Regarding `Cc1ccc2[nH]c(CNc3nc(N4C[C@@H]5CCCN[C@@H]5C4)nc4c(Br)cnn34)nc2c1` [Example 203, 8-bromo-N-[(5-methyl-1H-benzimidazol-2-yl)methyl]-2-[(4aS, 7aS)-octahydro-6H-pyrrolo[3,4-b]pyridin-6-yl]pyrazolo[1,5-a][1,3,5]triazin-4-amine], the IC50 in assay [1] was found to be 1.69 nM; at CDK2/CycE, 9300 nM; in assay [2], 1.19 nM.
For `CN(CC(C)(C)O)c1nc(NCc2nc3ccccc3[nH]2)n2ncc(Br)c2n1` [Example 238, 1-[(4-{[(1H-benzimidazol-2-yl)methyl]amino}-8-bromopyrazolo[1,5-a][1,3,5]triazin-2-yl)(methyl)amino]-2-methylpropan-2-ol], the values for the IC50 (in assay [1]; at CDK2/CycE; in assay [2]) were 40.1 nM, 1860 nM and more than 12.4 nM, respectively.
The matching figures for `Brc1cnn2c(NCc3nc4ccccc4[nH]3)nc(N3C[C@H]4CCCN[C@H]4C3)nc12` [Example 199, N-[(1H-benzimidazol-2-yl)methyl]-8-bromo-2-[(4aR, 7aR)-octahydro-6H-pyrrolo[3,4-b]pyridin-6-yl]pyrazolo[1,5-a][1,3,5]triazin-4-amine]: 53.2 nM, 5170 nM and 47.9 nM.
Regarding `COC(C)(C)CNc1nc(NCc2nc3ccccc3[nH]2)n2ncc(Br)c2n1` [Example 236, N4-(1H-benzimidazol-2-ylmethyl)-8-bromo-N2-(2-methoxy-2-methyl-propyl)pyrazolo[1,5-a][1,3,5]triazine-2,4-diamine], the IC50 in assay [1] amounted to 90.5 nM; on CDK2/CycE it was 12800 nM; in assay [2] it was 20.4 nM.
With `CN(C)C1CCN(c2nc(NCc3nc4ccccc4[nH]3)n3ncc(Br)c3n2)CC1` [Example 201, N-[(1H-benzimidazol-2-yl)methyl]-8-bromo-2-[4-(dimethylamino)piperidin-1-yl]pyrazolo[1,5-a][1,3,5]triazin-4-amine], the IC50 was 290 nM in assay [1], more than 20000 nM on CDK2/CycE and 145 nM in assay [2].
For `Cc1ccc2[nH]c(CNc3nc(N4CCN(C)CC4)nc4c(C5CC5)cnn34)nc2c1` [Example 210, 8-cyclopropyl-N-[(5-methyl-1H-benzimidazol-2-yl)methyl]-2-(4-methylpiperazin-1-yl)pyrazolo[1,5-a][1,3,5]triazin-4-amine] the same measures were 8.06 nM, more than 20000 nM and 2.27 nM.
For the compound `COc1cccc2[nH]c(CNc3nc(N4CCOCC4)nc4c(C5CC5)cnn34)nc12` [Example 213, 8-cyclopropyl-N-[(4-methoxy-1H-benzimidazol-2-yl)methyl]-2-morpholino-pyrazolo[1,5-a][1,3,5]triazin-4-amine], the IC50 in assay [1] stood at 24.8 nM; on CDK2/CycE, 5490 nM; in assay [2], 15 nM.
With `Brc1cnn2c(NCc3nc4ccccc4[nH]3)nc(N3CC4CCC3CN4)nc12` (stereo not drawn) [Example 220, N-(1H-benzimidazol-2-ylmethyl)-8-bromo-2-(2,5-diazabicyclo[2.2.2]octan-2-yl)pyrazolo[1,5-a][1,3,5]triazin-4-amine], the IC50 in assay [1] was 21.2 nM; at CDK2/CycE, 908 nM; in assay [2], 4.18 nM.
Regarding `FC(F)(F)c1cnn2c(NCc3nc4ccccc4[nH]3)nc(N3CCOCC3)nc12` [Example 241, N-[(1H-benzimidazol-2-yl)methyl]-2-(morpholin-4-yl)-8-(trifluoromethyl) pyrazolo[1,5-a][1,3,5]triazin-4-amine], the IC50 in assay [1] worked out at 28.9 nM; at CDK2/CycE it was 12000 nM; in assay [2], 17.3 nM.
With `CN1CC2CN(c3nc(NCc4nc5ccccc5[nH]4)n4ncc(Br)c4n3)CC2C1` (stereo not drawn) [Example 240, N-(1H-benzimidazol-2-ylmethyl)-8-bromo-2-(2-methyl-1,3,3a,4,6,6a-hexahydropyrrolo[3,4-c]pyrrol-5-yl)pyrazolo[1,5-a][1,3,5]triazin-4-amine], the figures for the IC50 (in assay [1]; on CDK2/CycE; in assay [2]) were 38.6 nM, 15500 nM and 7.69 nM, respectively.
Turning to `COc1cccc2[nH]c(CNc3nc(N4C[C@@H]5CCCN[C@@H]5C4)nc4c(C5CC5)cnn34)nc12` [Example 214, 8-cyclopropyl-N-[(4-methoxy-1H-benzimidazol-2-yl)methyl]-2-[(4aS,7aS)-octahydro-6H-pyrrolo[3,4-b]pyridin-6-yl]pyrazolo[1,5-a][1,3,5]triazin-4-amine], the values for the IC50 (in assay [1]; on CDK2/CycE; in assay [2]) were 17.7 nM, 17700 nM and 19.3 nM, respectively.
With `CN1CC[C@@H]2CN(c3nc(NCc4nc5ccccc5[nH]4)n4ncc(Br)c4n3)C[C@@H]21` [Example 217, N-[(1H-benzimidazol-2-yl)methyl]-8-bromo-2-[(3aR,6aR)-1-methylhexahydropyrrolo[3,4-b]pyrrol-5 (1H)-yl]pyrazolo[1,5-a][1,3,5]triazin-4-amine], the values for the IC50 (in assay [1]; on CDK2/CycE; in assay [2]) were 97.9 nM, more than 20000 nM and 33.5 nM, respectively.
For `Brc1cnn2c(NCc3nc4ccccc4[nH]3)nc(N3CCC4(CCCN4)C3)nc12` (stereo not drawn) [Example 215, N-(1H-benzimidazol-2-ylmethyl)-8-bromo-2-(1,7-diazaspiro[4.4]nonan-7-yl)pyrazolo[1,5-a][1,3,5]triazin-4-amine] the same measures were 129 nM, 8980 nM and 131 nM.
Regarding `COc1ccc2[nH]c(CNc3nc(N4C[C@@H](C)N[C@@H](C)C4)nc4c(Br)cnn34)nc2c1` [Example 205, 8-bromo-2-[(3R,5S)-3,5-dimethylpiperazin-1-yl]-N-[(5-methoxy-1 H-benzimidazol-2-yl)methyl]pyrazolo[1,5-a][1,3,5]triazin-4-amine], the IC50 is 4.2 nM in assay [1], more than 20000 nM on CDK2/CycE and 1.81 nM in assay [2].
On to `CN1C[C@H]2C[C@@H]1CN2c1nc(NCc2nc3ccccc3[nH]2)n2ncc(Br)c2n1` [Example 218, N-[(1H-benzimidazol-2-yl)methyl]-8-bromo-2-[(1R,4R)-5-methyl-2,5-diazabicyclo[2.2.1]heptan-2-yl]pyrazolo[1,5-a][1,3,5]triazin-4-amine], for which the IC50 in assay [1] is 35.7 nM; at CDK2/CycE, 5780 nM; in assay [2], 12.3 nM.
For `Cc1ccc2[nH]c(CNc3nc(N4CCOCC4)nc4c(C5CC5)cnn34)nc2c1` [Example 193, 8-cyclopropyl-N-[(5-methyl-1H-benzimidazol-2-yl)methyl]-2-(morpholin-4-yl)pyrazolo[1,5-a][1,3,5]triazin-4-amine] the same measures were 6.64 nM, 10800 nM and 3.65 nM.
For `Fc1ccc2[nH]c(CNc3nc(N4C[C@@H]5CCCN[C@@H]5C4)nc4c(C5CC5)cnn34)nc2c1F` [Example 171, 8-cyclopropyl-N-[(4,5-difluoro-1H-benzimidazol-2-yl)methyl]-2-[(4aS,7aS)-octahydro-6H-pyrrolo[3,4-b]pyridin-6-yl]pyrazolo[1,5-a][1,3,5]triazin-4-amine] the same measures were 5.49 nM, more than 20000 nM and 1.03 nM.
With `O[C@H]1CCN(c2nc(NCc3nc4ccccc4[nH]3)n3ncc(Br)c3n2)C1` [Example 224, (3S)-1-(4-{[(1H-benzimidazol-2-yl)methyl]amino}-8-bromopyrazolo[1,5-a][1,3,5]triazin-2-yl)pyrrolidin-3-ol], the values for the IC50 (in assay [1]; on CDK2/CycE; in assay [2]) were 128 nM, 7750 nM and 21.2 nM, respectively.
The matching figures for `CN1CC2CCC1CN2c1nc(NCc2nc3ccccc3[nH]2)n2ncc(Br)c2n1` (stereo not drawn) [Example 221, N-(1H-benzimidazol-2-ylmethyl)-8-bromo-2-(5-methyl-2,5-diazabicyclo[2.2.2]octan-2-yl)pyrazolo[1,5-a][1,3,5]triazin-4-amine]: 31.7 nM, 5010 nM and 11.8 nM.
As to `C[C@@H]1CN(c2nc(NCc3nc4c(F)c(F)ccc4[nH]3)n3ncc(C4CC4)c3n2)C[C@H](C)N1` [Example 170, 8-cyclopropyl-N-[(4,5-difluoro-1H-benzimidazol-2-yl)methyl]-2-[(3R,5S)-3,5-dimethylpiperazin-1-yl]pyrazolo[1,5-a][1,3,5]triazin-4-amine], the figures for the IC50 (in assay [1]; at CDK2/CycE; in assay [2]) were 2.25 nM, more than 20000 nM and 0.419 nM, respectively.
For `Fc1ccc2[nH]c(CNc3nc(N4CCOCC4)nc4c(C5CC5)cnn34)nc2c1F` [Example 172, 8-cyclopropyl-N-[(4,5-difluoro-1H-benzimidazol-2-yl)methyl]-2-(morpholin-4-yl)pyrazolo[1,5-a][1,3,5]triazin-4-amine] the same measures were 5.35 nM, more than 20000 nM and 0.626 nM.
On to `Brc1cnn2c(NCc3nc4ccccc4[nH]3)nc(N3CCNC4(CC4)C3)nc12` [Example 176, N-[(1H-benzimidazol-2-yl)methyl]-8-bromo-2-(4,7-diazaspiro[2.5]octan-7-yl)pyrazolo[1,5-a][1,3,5]triazin-4-amine], for which the IC50 in assay [1] turned out to be 14.6 nM; at CDK2/CycE, 8600 nM; in assay [2], 4.68 nM.
